Measured values published in patent US20260174682A1, “GAMMA-AMINOBUTYRIC ACID DERIVATIVE COMPRISING POLYCYCLIC STRUCTURE, METHOD FOR PREPARING SAME, AND USE THEREOF” (ZHONGSHAN INSTITUTE FOR DRUG DISCOVERY, SIMM, CAS., priority 2022, published 2026).
Marks after values point to notes of the source that are not given here.

Tests used:
[1] = molecular target: T1, human recombinant calcium ion channel Cav2.2/β3/α2δ-1 (Homo sapiens, UniProt P54289); test: In vitro binding to human recombinant calcium ion channel Cav2.2/β3/α2δ-1 ([3H]gabapentin competition); conditions: inhibition of binding of 5 nM [3H]gabapentin, CHO cell membranes, 25° C., 120 min; read-out: IC50
T1 construct: expressed in transfected cells; host or cells: CHO cells (membranes)
T1 sequence (P54289 25-956 limits assumed): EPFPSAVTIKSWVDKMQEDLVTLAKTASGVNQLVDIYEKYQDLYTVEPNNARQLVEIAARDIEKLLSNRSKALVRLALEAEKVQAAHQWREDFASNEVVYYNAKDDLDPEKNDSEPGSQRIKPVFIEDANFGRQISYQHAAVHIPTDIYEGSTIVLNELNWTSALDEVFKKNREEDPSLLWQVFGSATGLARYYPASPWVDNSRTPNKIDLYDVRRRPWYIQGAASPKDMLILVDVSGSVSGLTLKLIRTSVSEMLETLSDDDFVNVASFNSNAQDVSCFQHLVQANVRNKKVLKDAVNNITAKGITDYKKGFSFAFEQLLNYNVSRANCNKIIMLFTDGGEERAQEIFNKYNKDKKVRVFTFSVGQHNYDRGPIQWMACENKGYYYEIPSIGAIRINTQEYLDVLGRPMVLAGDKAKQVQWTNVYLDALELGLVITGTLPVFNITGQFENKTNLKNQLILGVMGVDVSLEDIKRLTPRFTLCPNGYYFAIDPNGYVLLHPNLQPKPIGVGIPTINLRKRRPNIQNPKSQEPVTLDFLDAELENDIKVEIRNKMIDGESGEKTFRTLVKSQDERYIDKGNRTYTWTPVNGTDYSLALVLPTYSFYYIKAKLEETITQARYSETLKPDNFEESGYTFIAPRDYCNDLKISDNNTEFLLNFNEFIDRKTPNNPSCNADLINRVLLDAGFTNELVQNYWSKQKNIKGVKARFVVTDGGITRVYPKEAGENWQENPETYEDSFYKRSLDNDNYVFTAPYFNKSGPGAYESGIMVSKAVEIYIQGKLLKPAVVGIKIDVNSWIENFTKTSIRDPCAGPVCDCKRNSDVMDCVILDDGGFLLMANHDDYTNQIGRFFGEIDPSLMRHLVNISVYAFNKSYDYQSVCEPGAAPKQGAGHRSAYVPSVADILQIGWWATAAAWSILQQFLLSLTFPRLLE
T1 sequence (P54289 957-1103 partner limits assumed): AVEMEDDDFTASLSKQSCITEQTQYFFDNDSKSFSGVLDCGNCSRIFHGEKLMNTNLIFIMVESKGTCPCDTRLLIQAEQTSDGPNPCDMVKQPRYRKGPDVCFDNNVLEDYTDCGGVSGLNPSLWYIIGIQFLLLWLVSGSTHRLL
T1 sequence (Q00975 whole entry partner): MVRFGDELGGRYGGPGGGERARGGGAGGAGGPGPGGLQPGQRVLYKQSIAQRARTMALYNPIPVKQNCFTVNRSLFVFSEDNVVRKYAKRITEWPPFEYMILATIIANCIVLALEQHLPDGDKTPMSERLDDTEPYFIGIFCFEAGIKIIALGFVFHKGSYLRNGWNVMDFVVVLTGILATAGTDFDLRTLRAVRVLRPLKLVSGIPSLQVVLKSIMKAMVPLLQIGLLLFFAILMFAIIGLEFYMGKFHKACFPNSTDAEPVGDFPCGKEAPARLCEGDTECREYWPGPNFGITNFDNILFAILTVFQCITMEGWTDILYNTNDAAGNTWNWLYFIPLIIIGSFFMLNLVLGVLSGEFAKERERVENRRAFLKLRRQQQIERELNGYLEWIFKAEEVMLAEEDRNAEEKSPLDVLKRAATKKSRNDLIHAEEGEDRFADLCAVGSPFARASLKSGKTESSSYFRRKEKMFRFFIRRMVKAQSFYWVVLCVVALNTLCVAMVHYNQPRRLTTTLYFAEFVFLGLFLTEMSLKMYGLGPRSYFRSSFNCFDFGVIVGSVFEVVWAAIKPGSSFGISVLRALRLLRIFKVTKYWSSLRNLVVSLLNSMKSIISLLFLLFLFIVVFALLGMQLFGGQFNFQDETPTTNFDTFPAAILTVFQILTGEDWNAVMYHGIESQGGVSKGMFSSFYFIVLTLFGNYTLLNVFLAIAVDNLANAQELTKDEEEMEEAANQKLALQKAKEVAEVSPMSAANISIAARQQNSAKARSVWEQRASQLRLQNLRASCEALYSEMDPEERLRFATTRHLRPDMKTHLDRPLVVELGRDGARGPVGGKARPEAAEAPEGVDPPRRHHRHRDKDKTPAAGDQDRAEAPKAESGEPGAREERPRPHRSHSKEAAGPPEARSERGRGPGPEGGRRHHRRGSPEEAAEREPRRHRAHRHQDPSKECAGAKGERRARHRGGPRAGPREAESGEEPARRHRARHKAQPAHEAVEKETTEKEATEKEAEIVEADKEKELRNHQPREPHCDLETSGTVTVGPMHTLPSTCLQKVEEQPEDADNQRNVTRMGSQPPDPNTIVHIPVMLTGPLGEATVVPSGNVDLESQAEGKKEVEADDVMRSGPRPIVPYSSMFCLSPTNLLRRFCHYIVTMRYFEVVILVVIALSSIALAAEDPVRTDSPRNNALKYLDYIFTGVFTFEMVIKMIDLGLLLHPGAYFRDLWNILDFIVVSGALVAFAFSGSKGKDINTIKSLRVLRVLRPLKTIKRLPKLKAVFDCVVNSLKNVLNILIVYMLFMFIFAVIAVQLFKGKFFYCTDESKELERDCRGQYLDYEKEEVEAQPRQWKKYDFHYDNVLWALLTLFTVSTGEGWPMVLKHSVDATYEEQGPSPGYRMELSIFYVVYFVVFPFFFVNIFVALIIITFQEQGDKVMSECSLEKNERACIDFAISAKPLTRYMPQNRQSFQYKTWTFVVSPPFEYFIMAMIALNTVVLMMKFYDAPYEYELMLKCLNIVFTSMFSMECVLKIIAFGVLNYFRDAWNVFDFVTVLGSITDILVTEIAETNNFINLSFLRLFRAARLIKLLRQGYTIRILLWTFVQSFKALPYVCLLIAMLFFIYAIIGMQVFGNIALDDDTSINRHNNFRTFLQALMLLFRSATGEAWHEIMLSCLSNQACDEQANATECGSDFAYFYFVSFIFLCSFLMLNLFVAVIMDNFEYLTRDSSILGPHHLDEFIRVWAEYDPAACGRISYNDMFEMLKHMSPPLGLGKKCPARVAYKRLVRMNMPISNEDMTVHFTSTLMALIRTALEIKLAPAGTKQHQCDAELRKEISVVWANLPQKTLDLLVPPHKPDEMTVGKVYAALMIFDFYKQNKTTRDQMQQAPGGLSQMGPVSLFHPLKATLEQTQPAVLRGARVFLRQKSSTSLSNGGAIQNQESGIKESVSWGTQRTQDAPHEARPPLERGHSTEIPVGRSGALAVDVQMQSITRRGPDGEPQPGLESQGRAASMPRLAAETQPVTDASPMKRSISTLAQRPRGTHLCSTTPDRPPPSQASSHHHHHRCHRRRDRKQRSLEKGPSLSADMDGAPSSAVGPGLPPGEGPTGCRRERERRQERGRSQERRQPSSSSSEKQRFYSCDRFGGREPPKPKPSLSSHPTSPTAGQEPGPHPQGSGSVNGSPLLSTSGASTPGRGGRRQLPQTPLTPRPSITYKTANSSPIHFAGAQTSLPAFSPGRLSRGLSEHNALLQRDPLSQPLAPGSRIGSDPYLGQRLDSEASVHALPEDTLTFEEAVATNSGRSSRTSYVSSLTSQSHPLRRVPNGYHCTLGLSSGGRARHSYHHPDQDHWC
T1 sequence (P54284 whole entry partner): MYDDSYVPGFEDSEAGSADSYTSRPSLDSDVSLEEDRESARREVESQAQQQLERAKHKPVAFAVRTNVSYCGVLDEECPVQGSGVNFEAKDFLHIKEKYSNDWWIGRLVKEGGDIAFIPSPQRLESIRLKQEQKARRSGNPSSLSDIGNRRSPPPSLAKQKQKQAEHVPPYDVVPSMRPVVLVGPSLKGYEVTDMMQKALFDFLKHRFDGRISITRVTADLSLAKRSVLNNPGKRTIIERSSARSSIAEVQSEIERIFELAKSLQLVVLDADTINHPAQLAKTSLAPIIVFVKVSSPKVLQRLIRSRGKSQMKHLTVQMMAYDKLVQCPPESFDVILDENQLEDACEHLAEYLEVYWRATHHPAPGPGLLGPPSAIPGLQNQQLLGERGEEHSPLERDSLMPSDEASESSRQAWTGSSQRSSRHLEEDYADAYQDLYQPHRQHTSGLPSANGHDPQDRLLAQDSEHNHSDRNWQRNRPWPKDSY
Text: Example 28 In Vitro Binding of Compounds to Human Recombinant Calcium Ion Channel Cav2.2/β3/α2δ-1
There are four subtypes of the voltage-gated calcium ion channel α2δ subunit, α2δ-1, α2δ-2, α2δ-3 and α2δ-4, in which α2δ-1 is the subtype that mediates chronic neuropathic pain (Field, M. J. et al.; Proc. Natl. Acad. Sci. U.S.A. 2006, 103, 17537-17542). Therefore, the binding strength of a compound to α2δ-1 is a direct indicator for measuring an analgesic effect thereof on the chronic neuropathic pain (Calandre, E. P. et al.; Expert Rev. Neuroether. 2016, 16, 1263-1277).
The in vitro binding strength of the compound of the present application to human recombinant calcium ion channel Cav2.2/β3/α2δ-1 is basically operated according to a reported method (Gee, N. S. et al.; J. Biol. Chem. 1996, 271, 5768-5776; Marais, E. et al.; Mol. Pharmacol. 2001, 59, 1243-1248). CHO cells expressing the human recombinant calcium ion channel Cav2.2/β3/α2δ-1 were used in the test. After routine separation of cell membranes, 3 μg of the cell membranes were added into each well with a modified HEPES/KOH buffer solution (pH 7.4) as a solution of the test system. Then, 5 nM [^3H]gabapentin and the compound to be tested at 6 concentrations (3, 9, 27, 81, 243, and 729 nM) were added, and the test system was incubated at 25° C. for 120 min. Non-specific binding was obtained by replacing the compound to be tested in the above test system with […] gabapentin. After the incubation was completed, the cell membranes were collected by filtration and washed with 50 mM Tris-HCl (pH 7.4), and then the radioactivity of [^3H]gabapentin bound to the cell membranes was tested by a liquid scintillation technology. […] An inhibition rate of the compound of the present application on the binding of the [^3H]gabapentin to the human recombinant calcium ion channel Cav2.2/β3/α2δ-1 was calculated according to the following formula: […]
wherein • I is the radioactivity corresponding to that the compound to be tested and [^3H]gabapentin are simultaneously co-incubated with the human recombinant calcium ion channel Cav2.2/β3/α2δ-1, • I0 is the radioactivity corresponding to co-incubation of [^3H]gabapentin and the human recombinant calcium ion channel Cav2.2/β3/α2δ-1 without adding the compound to be tested into the incubation system, and • IU is the radioactivity corresponding to that 10 μM gabapentin and [^3H]gabapentin are simultaneously co-incubated with the human recombinant calcium ion channel Cav2.2/β3/α2δ-1.
The concentration of the compound to be tested that inhibits 50% of the binding of [^3H]gabapentin to the human recombinant calcium ion channel Cav2.2/β3/α2δ-1 is defined as IC50, and the IC50 is calculated by nonlinear least squares regression analysis using the above inhibition rate (MathIQ™, ID Business Solutions Ltd., UK).

[2] = system: Sprague Dawley (SD) rat spared nerve injury (SNI) model; test: Analgesic effect in rat spared nerve injury (SNI) chronic neuropathic pain model; assay type: in vivo; conditions: SNI rats; for maximum possible effect (% MPE) / area under the mechanical pain threshold-time curve compared with the vehicle control group: oral gavage 30 mg/kg (calculated by free base); for maximum possible effect (% MPE) / maximum possible effect (MPE): from AUC of mechanical pain threshold-time curve to 24 h; for maximum possible effect (MPE): oral gavage 10 mg/kg (calculated by free base)
Procedure: Establishment of the SNI model: Surgery was performed according to an aseptic operation method, and various surgical instruments, including scalpels, tweezers, suture needles/threads, surgical cotton, etc., were disinfected before the surgery. Animals were anesthetized by intraperitoneal injection of a Zoletil™ 50 solution at 50 mg/kg and then placed in lateral decubitus positions. After hair in surgical areas of lower bodies of animals was shaved, the animals were disinfected alternately with iodophor and 75% alcohol. The skin was cut at upper edges of left hind limbs, muscles were bluntly separated to expose a sciatic nerve trunk and 3 branches thereof, i.e., a tibial nerve, a common peroneal nerve and a sural nerve. The tibial nerve and the common peroneal nerve were ligated and cut, and the sural nerve was preserved and maintained intact. After the surgery, wounds were sutured layer by layer, the animals were administered with 25% ampicillin (1 mL/kg) through intraperitoneal injection to prevent infection, and routine nursing was performed. In sham group, only the sciatic nerve and the branches thereof were exposed, the nerves were not ligated and cut, and other operations were the same as those in the model group. Detection of a mechanical pain threshold: A Von-frey test fiber was used to detect the mechanical pain threshold of the sole of an operative side of each animal on day 1, day 3 and day 7 after the surgery, respectively. An “up-and-down” method was used as a method of detecting the mechanical pain threshold at the stimulation intensity of 0.4, 0.6, 1, 2, 4, 6, 8, and 15 g. During the test, the test fiber was used to vertically stimulate the site, close to an outer side, in the sole center of the left hind paw of a rat for 6-8 seconds each time at an interval of 5 seconds. A pain response was shown as an obvious paw withdrawal, paw licking, or paw lifting behavior of the animals during each test. From day 11 after the surgery, the animals were placed in an experimental environment for adaptation, wherein the adaptation was performed continuously for 15 min per day for 3 days. On day 13, a basic value of mechanical pain hypersensitivity was detected after the adaptation was completed. The mechanical pain hypersensitivity was expressed by a 50% paw-withdrawal threshold (PWT) according to a calculation formula of 50% PWT (g)=10^xf+kδ, wherein xf is a log value of a fiber test force, k is a tabular value, and δ is an average spacing of the log value of the fiber test force.
Pharmacodynamic evaluation: According to basic threshold detection results on day 13 after the surgery, the animals in the model group without the mechanical pain hypersensitivity, that is, the PWT was greater than 4 g, were excluded, and the other successfully modeled animals were used for a formal test. On day 14 after the surgery, various compound to be tested were newly formulated. Pregabalin was directly dissolved with 0.9% sodium chloride at a dose of 30 mg/kg to obtain a solution at a desired concentration. (±)—I-7, (±)—I-3 and (±)—I-4 p-toluenesulfonate were also completely dissolved with a 0.9% sodium chloride solution at a dose of 30 mg/kg (calculated by free base). The successfully modeled animals were randomly divided into 5 groups with 8 animals in each group. In addition, 7 animals were selected in the sham group. […] The mechanical pain hypersensitivity response of the left hind paw was detected at 1 h, 2 h, 4 h, 6 h, 8 h, 10 h, and 24 h after the administration. Evaluation was performed by using a blind method, and a detection method was the same as above. An area under a mechanical pain threshold-time curve (AUC) was calculated using GraphPad Prism Version 8.0.1 software.

male SD rats = test: Acute toxicity test on rats; conditions: oral gavage 300 mg/kg (calculated by free base)
Procedure: After adapting to the environment for one week, the SD rats were used in a preliminary acute toxicity test. The compounds were newly formulated on the day of the test. […] After being labeled and weighed, the animals were randomly grouped with 2-4 animals in each group. […] Clinical symptoms of each animal were observed and recorded at 0.5 hours, 1 hour, 2 hours, 4 hours, 6 hours and 24 hours after the administration, respectively. Clinical symptom codes were as follows: 0 no abnormality, 1 mild tremor, 2 unsteady gait, 3 prone position, 4 startle reflex, 5 difficult breathing, 6 righting reflex disappeared, 7 eyelid closure, 8 shortness of breath, and x animal death.

[3] = system: mouse 6-Hz psychomotor seizure model; test: Antiepileptic effect in mouse 6-Hz psychomotor seizure model; assay type: in vivo; conditions: 6-Hz model, C57BL/6 mice, gavage, dose 200 mg/kg
Procedure: A negative vehicle control group, a positive drug control group (pregabalin and gabapentin) and a test group of the compounds of the present application were set. Male C57BL/6 mice with a body weight of 20±2 g were selected. […] After fasted for 12 h, the mice were administered the compounds of the present application or the control drugs, and then subjected to 6-Hz electrical stimulation to induce epilepsy seizure behaviors after a certain time interval (2 h for pregabalin, 1 h for gabapentin, 1 h for levetiracetam, and 3 h for the compounds of the present application). In an induction model, when the stimulation was performed with a Model 4100 stimulator (A-M Systems, the United States), rear necks of the mice were immobilized by hands on a feeding cage, a corneal electrode was moisten with normal saline and allowed to gently contact bilateral corneas of the mice, the electrical stimulator was trod by a foot to give the mice the electrical stimulation with a stimulation parameter of 6-Hz, a one-way square wave of 32 mA, a wave width of 0.2 ms and a stimulation duration of 3 sec, and timing was performed with a stopwatch during the stimulation. After the electrical stimulation was completed, the mice with the seizure behaviors lasting for less than 7 sec were regarded as being protected by the drugs, and the mice with the seizure behaviors lasting for more than 7 sec were regarded as being not protected from the epilepsy by the drugs. Response situations of the animals were observed and recorded, and obtained data were counted to calculate protection rates of the compounds.
Statistical method: The protection rates of different administration groups were separately compared with that of the vehicle control group to carry out a Fisher's exact test.

Row | SMILES | IC50 [1] [µM] | also measured
1 | NCC1(CC(=O)O)CC2C3CCC(C3)C21 (racemic) [(±)-I-1] | > 0.729 | –
2 | Cc1ccc(S(=O)(=O)O)cc1.NCC1(CC(=O)O)CC2C3C=CC(C3)C21 (racemic) [(±)-I-4 p-toluenesulfonate] | – | area under the mechanical pain threshold-time curve compared with the vehicle control group [2]: significantly improved; maximum possible effect (% MPE) [2]: 95.95%
3 | NCC1(CC(=O)O)CC2C3C[C@H]([C@H]4C[C@H]34)[C@@H]21 (mixture of isomers) [(±)-I-7] | 0.07 | area under the mechanical pain threshold-time curve compared with the vehicle control group [2]: significantly improved; maximum possible effect (% MPE) [2]: 73.63%; animal death (male SD rats): no animals are dead; Observation of clinical symptoms 0.5 h (male SD rats; per animal): 0; Observation of clinical symptoms 2 h (male SD rats; per animal): 3; Observation of clinical symptoms 4 h (male SD rats; per animal): 0; Observation of clinical symptoms 6 h (male SD rats; per animal): 0; Observation of clinical symptoms 24 h (male SD rats; per animal): 0; Observation of clinical symptoms 1 h (male SD rats; per animal, 300 mg/kg): 3
4 | CC1=C(C)C2(C)C3C(CC3(CN)CC(=O)O)C1(C)C2C (racemic) [(±)-I-8] | > 0.729 | –
5 | NCC1(CC(=O)O)CC2C3C=CC(C3)C21 (racemic) [(±)-I-11 p-toluenesulfonate] | > 0.729 | –
6 | NCC1(CC(=O)O)CC2C3CCC(C3)C21 (racemic) [(±)-I-12] | > 0.729 | –
7 | CC1=C(C)C2(C)CC1(C)C1CC(CN)(CC(=O)O)C12 (racemic) [(±)-I-18] | > 0.729 | –
8 | CC1=C(C)C2(C)C3C(CC3(CN)CC(=O)O)C1(C)C2(C)C (racemic) [(±)-I-19] | > 0.729 | –
9 | Cc1ccc(S(=O)(=O)O)cc1.NCC1(CC(=O)O)CC2C3CCC(C3)C21 (single isomer, unassigned; (-)) [(−)-I-3 p-toluenesulfonate] | > 0.243 | maximum possible effect (MPE) [2]: 30.22%
10 | NCC1(CC(=O)O)CC2C3C=CC(C3)C21 (single isomer, unassigned; (-)) [(−)-I-4 p-toluenesulfonate] | > 0.243 | maximum possible effect (MPE) [2]: 18.53%
11 | CC[C@@H](C(N)=O)N1CCCC1=O [Levetiracetam] | – | Number of animals with clonic seizures/total number [3]: 3/11**; Protection rate (%) [3]: 72.7 *** %

Second part, led by results:

Row | IC50 [1] [µM] | SMILES | also measured
12 | 0.47 | NCC1(CC(=O)O)C[C@@H]2C1C1C=C[C@H]2C1 (mixture of isomers) [(±)-I-2] | –
13 | 0.0152 | NCC1(CC(=O)O)CC2C3CC[C@@H](C3)[C@@H]21 (mixture of isomers) [(±)-I-3] | maximum possible effect (% MPE) [2]: 44.80%
14 | 0.45 | NCC1(CC(=O)O)CC2C3CCC(CC3)C21 (racemic) [(±)-I-5] | –
15 | 0.3 | NCC1(CC(=O)O)CC2C3C=CC(CC3)C21 (racemic) [(±)-I-6 p-toluenesulfonate] | –
16 | > 0.729 | NCC1(CC(=O)O)CC2C1C1C=CC2C12CC2 (racemic) [(±)-I-9 p-toluenesulfonate] | –
17 | > 0.729 | NCC1(CC(=O)O)CC2C1C1CCC2C12CC2 (racemic) [(±)-I-10] | –
18 | 0.6 | CC1(C)C2CC[C@@H]1[C@H]1C2CC1(CN)CC(=O)O (mixture of isomers) [(±)-I-14] | –
19 | 0.58 | CC1(C)C2C=CC1C1C2CC1(CN)CC(=O)O (racemic) [(±)-I-15 p-toluenesulfonate] | –
20 | 0.477 | CC1C2CC[C@@H]1[C@H]1C2CC1(CN)CC(=O)O (mixture of isomers) [(±)-I-16] | –
21 | 0.453 | CC1C2C=CC1C1C2CC1(CN)CC(=O)O (racemic) [(±)-I-17 p-toluenesulfonate] | –
